Read-outs that look alike come from different tables or passages of the source.
Columns and labels:
ALK (h) = format: biochemical, human; details: 0.1 μM test compound, 10 μM ATP; remaining activity relative to DMSO control = 100%
Experimental: (§1) Assay conditions included 10 μM ATP and 100 nM test compounds.
(§2) All reactions are initiated by the addition of the MgATP mix. After incubation for 40 minutes at room temperature, the reaction is stopped by the addition of 3% phosphoric acid solution. 10 μL of the reaction is then spotted onto a P30 filtermat and washed three times for 5 minutes in 75 mM phosphoric acid and once in methanol prior to drying and scintillation counting. This assay is performed by Millipore. The experiment is carried out in duplicate. The value for the control sample (DMSO) was set to 100%, and the values for the compound-treated samples were expressed as activity relative to the control sample.

EGFR (h) = format: biochemical, human
Experimental: as §1
(§3) All reactions are initiated by the addition of the MgATP mix. After incubation for 40 minutes at room temperature, the reaction is stopped by the addition of 3% phosphoric acid solution. 10 μL of the reaction is then spotted onto a P30 filtermat and washed three times for 5 minutes in 75 mM phosphoric acid and once in methanol prior to drying and scintillation counting. […] The experiment is carried out in duplicate. The value for the control sample (DMSO) was set to 100%, and the values for the compound-treated samples were expressed as activity relative to the control sample.
(§4) (specific activity approx. 500 cpm/pmol, concentration as required) and 0.1 μM test compound.

EGFR (L858R) (h) = format: biochemical, human
Experimental: as §1, §3, §4

EGFR (T790M) (h) = format: biochemical, human
Experimental: as §1, §2

EGFR (T790M, L858R) (h) = format: biochemical, human
Experimental: as §1, §3, §4

[1] = system: activated and resistant T790M forms of EGFR; assay: In vitro cellular assays, overall statement; format: cell-based; details: result in words
Experimental: Effects of test compounds on in vitro proliferation were measured by MTS cell viability assay.

[2] = 0.1 μM test compound, 10 μM ATP, remaining activity relative to DMSO control = 100%

C=CC(=O)Nc1cc(Nc2ncc(Cl)c(Nc3ccccc3C(=O)C(=O)N(C)CCN(C)C)n2)ccc1OC [Example 102, N-(5-(5-chloro-4-(2-(2-((2-(dimethylamino)ethyl)(methyl)amino)-2-oxoacetyl)phenylamino)pyrimidin-2-ylamino)-2-methoxyphenyl)acrylamide]
Activity (control) % ALK (h) (ALK (h)): 5%
Activity (control) % EGFR (h) (EGFR (h); [2]): 98%
Activity (control) % EGFR (L858R) (h) (EGFR (L858R) (h); [2]): 57%
Activity (control) % EGFR (T790M) (h) (EGFR (T790M) (h); [2]): 40%
Activity (control) % EGFR (T790M, L858R) (h) (EGFR (T790M, L858R) (h); [2]): 5%

C=C(CN1CCCC1)C(=O)Nc1ccc(OC)c(Nc2ncc(Cl)c(Nc3ccccc3C(=O)C(=O)N(C)C)n2)c1 [Example 97, N-(3-(5-chloro-4-(2-(2-(dimethylamino)-2-oxoacetyl)phenylamino)pyrimidin-2-ylamino)-4-methoxyphenyl)-2-(pyrrolidin-1-ylmethyl)acrylamide]
Activity (control) % ALK (h) (ALK (h)): 23%
Activity (control) % EGFR (h) (EGFR (h); [2]): 74%
Activity (control) % EGFR (L858R) (h) (EGFR (L858R) (h); [2]): 46%
Activity (control) % EGFR (T790M) (h) (EGFR (T790M) (h); [2]): 2%
Activity (control) % EGFR (T790M, L858R) (h) (EGFR (T790M, L858R) (h); [2]): 6%

COc1cc(Nc2ncc(Cl)c(Nc3ccccc3C(=O)C(=O)N(C)C)n2)ccc1N1CCN(C(C)=O)CC1 [Example 94, 2-(2-(2-(4-(4-acetylpiperazin-1-yl)-3-methoxyphenylamino)-5-chloropyrimidin-4-ylamino)phenyl)-N,N-dimethyl-2-oxoacetamide]
Activity (control) % ALK (h) (ALK (h)): 6%
Activity (control) % EGFR (h) (EGFR (h); [2]): 100%
Activity (control) % EGFR (L858R) (h) (EGFR (L858R) (h); [2]): 84%
Activity (control) % EGFR (T790M) (h) (EGFR (T790M) (h); [2]): 45%
Activity (control) % EGFR (T790M, L858R) (h) (EGFR (T790M, L858R) (h); [2]): 9%

C=C(CN(C)C)C(=O)Nc1ccc(OC)c(Nc2ncc(Cl)c(Nc3ccccc3C(=O)C(=O)N(C)C)n2)c1 [Example 78, N-(3-(5-chloro-4-(2-(2-(dimethylamino)-2-oxoacetyl)phenylamino)pyrimidin-2-ylamino)-4-methoxyphenyl)-2-((dimethylamino)methyl)acrylamide]
Activity (control) % ALK (h) (ALK (h)): 36%
Activity (control) % EGFR (h) (EGFR (h); [2]): 68%
Activity (control) % EGFR (L858R) (h) (EGFR (L858R) (h); [2]): 37%
Activity (control) % EGFR (T790M) (h) (EGFR (T790M) (h); [2]): 2%
Activity (control) % EGFR (T790M, L858R) (h) (EGFR (T790M, L858R) (h); [2]): 3%

C=CC(=O)Nc1ccc(OC)c(Nc2ncc(Cl)c(Nc3ccccc3C(=O)C(=O)N(C)C)n2)c1 [Example 67, N-(3-(5-chloro-4-(2-(2-(dimethylamino)-2-oxoacetyl)phenylamino)pyrimidin-2-ylamino)-4-methoxyphenyl)acrylamide]
Activity (control) % ALK (h) (ALK (h)): 13%
Activity (control) % EGFR (L858R) (h) (EGFR (L858R) (h)): 85%
Activity (control) % EGFR (T790M) (h) (EGFR (T790M) (h)): 50%
Activity (control) % EGFR (T790M, L858R) (h) (EGFR (T790M, L858R) (h)): 9%
activity against both activated and resistant T790M forms of EGFR in vitro cellular assays [1]: potent activity

C=CC(=O)Nc1cc(Nc2ncc(Cl)c(Nc3ccccc3C(=O)C(=O)N(C)C)n2)ccc1OC [Example 65, N-(5-(5-chloro-4-(2-(2-(dimethylamino)-2-oxoacetyl)phenylamino)pyrimidin-2-ylamino)-2-methoxyphenyl)acrylamide]
Activity (control) % ALK (h) (ALK (h)): 19%
Activity (control) % EGFR (T790M) (h) (EGFR (T790M) (h); [2]): 80%
Activity (control) % EGFR (T790M, L858R) (h) (EGFR (T790M, L858R) (h); [2]): 25%
activity against both activated and resistant T790M forms of EGFR in vitro cellular assays [1]: potent activity

C=C(CN(C)CCN(C)C)C(=O)Nc1ccc(OC)c(Nc2ncc(Cl)c(Nc3ccccc3C(=O)C(=O)N(C)C)n2)c1 [Example 126, N-(3-(5-chloro-4-(2-(2-(dimethylamino)-2-oxoacetyl)phenylamino)pyrimidin-2-ylamino)-4-methoxyphenyl)-2-(((2-(dimethylamino)ethyl)(methyl)amino)methyl)acrylamide]
Activity (control) % ALK (h) (ALK (h)): 19%
Activity (control) % EGFR (h) (EGFR (h); [2]): 93%
Activity (control) % EGFR (L858R) (h) (EGFR (L858R) (h); [2]): 47%
Activity (control) % EGFR (T790M) (h) (EGFR (T790M) (h); [2]): 5%
Activity (control) % EGFR (T790M, L858R) (h) (EGFR (T790M, L858R) (h); [2]): 2%

C=CC(=O)Nc1cccc(Nc2nc(Nc3ccc(N4CCN(C(C)=O)CC4)cc3OC)ncc2C(F)(F)F)c1 [CO-1686, reference compound]
Activity (control) % EGFR (h) (EGFR (h)): 92%
Activity (control) % EGFR (L858R) (h) (EGFR (L858R) (h)): 97%
Activity (control) % EGFR (T790M) (h) (EGFR (T790M) (h)): 21%
Activity (control) % EGFR (T790M, L858R) (h) (EGFR (T790M, L858R) (h)): 7%

C=CC(=O)Nc1cc(Nc2ncc(Cl)c(Nc3ccccc3C(=O)C(=O)N(C)C)n2)ccc1OC1CCOC1 (stereo not drawn) [Example 124, N-(5-(5-chloro-4-(2-(2-(dimethylamino)-2-oxoacetyl)phenylamino)pyrimidin-2-ylamino)-2-(tetrahydrofuran-3-yloxy)phenyl)acrylamide]
Activity (control) % ALK (h) (ALK (h)): 16%
Activity (control) % EGFR (h) (EGFR (h); [2]): 109%
Activity (control) % EGFR (L858R) (h) (EGFR (L858R) (h); [2]): 100%
Activity (control) % EGFR (T790M) (h) (EGFR (T790M) (h); [2]): 78%
Activity (control) % EGFR (T790M, L858R) (h) (EGFR (T790M, L858R) (h); [2]): 20%

C=C(CN(C)CCN(C)C)C(=O)Nc1cccc(Nc2ncc(Cl)c(Nc3ccccc3C(=O)C(=O)N(C)C)n2)c1 [Example 125, N-(3-(5-chloro-4-(2-(2-(dimethylamino)-2-oxoacetyl)phenylamino)pyrimidin-2-ylamino)phenyl)-2-(((2-(dimethylamino)ethyl)(methyl)amino)methyl)acrylamide]
Activity (control) % ALK (h) (ALK (h)): 20%
Activity (control) % EGFR (L858R) (h) (EGFR (L858R) (h); [2]): 54%
Activity (control) % EGFR (T790M) (h) (EGFR (T790M) (h); [2]): 18%
Activity (control) % EGFR (T790M, L858R) (h) (EGFR (T790M, L858R) (h); [2]): 2%

CN(C)C(=O)C(=O)c1ccccc1Nc1nc(Nc2ccc(F)c(NC(=O)CCN3CCOCC3)c2)ncc1Cl [Example 123, N-(5-(5-chloro-4-(2-(2-(dimethylamino)-2-oxoacetyl)phenylamino)pyrimidin-2-ylamino)-2-fluorophenyl)-3-morpholinopropanamide]
Activity (control) % ALK (h) (ALK (h)): 17%
Activity (control) % EGFR (L858R) (h) (EGFR (L858R) (h); [2]): 94%
Activity (control) % EGFR (T790M) (h) (EGFR (T790M) (h); [2]): 84%
Activity (control) % EGFR (T790M, L858R) (h) (EGFR (T790M, L858R) (h); [2]): 31%

COc1ccc(NC(=O)/C=C/CN2CCOCC2)cc1Nc1ncc(Cl)c(Nc2ccccc2C(=O)C(=O)N(C)C)n1 [Example 79, (E)-N-(3-(5-chloro-4-(2-(2-(dimethylamino)-2-oxoacetyl)phenylamino)pyrimidin-2-ylamino)-4-methoxyphenyl)-4-morpholinobut-2-enamide]
Activity (control) % ALK (h) (ALK (h)): 7%
Activity (control) % EGFR (h) (EGFR (h); [2]): 92%
Activity (control) % EGFR (L858R) (h) (EGFR (L858R) (h); [2]): 25%
Activity (control) % EGFR (T790M) (h) (EGFR (T790M) (h); [2]): 16%
Activity (control) % EGFR (T790M, L858R) (h) (EGFR (T790M, L858R) (h); [2]): 2%

C=CC(=O)Nc1ccc(OC)c(Nc2ncc(Cl)c(Nc3ccccc3C(=O)C(=O)N3CCN(C)CC3)n2)c1 [Example 89, N-(3-(5-chloro-4-(2-(2-(4-methylpiperazin-1-yl)-2-oxoacetyl)phenylamino)pyrimidin-2-ylamino)-4-methoxyphenyl)acrylamide]
Activity (control) % ALK (h) (ALK (h)): 8%
Activity (control) % EGFR (h) (EGFR (h); [2]): 67%
Activity (control) % EGFR (L858R) (h) (EGFR (L858R) (h); [2]): 10%
Activity (control) % EGFR (T790M) (h) (EGFR (T790M) (h); [2]): 5%
Activity (control) % EGFR (T790M, L858R) (h) (EGFR (T790M, L858R) (h); [2]): 1%

COc1cc(N2CCC(N(C)C)CC2)ccc1Nc1ncc(Cl)c(Nc2ccccc2C(=O)C(N)=O)n1 [Example 4, 2-(2-(5-chloro-2-(4-(4-(dimethylamino)piperidin-1-yl)-2-methoxyphenylamino)pyrimidin-4-ylamino)phenyl)-2-oxoacetamide]
Activity (control) % ALK (h) (ALK (h)): 8%
Activity (control) % EGFR (h) (EGFR (h)): 65%
Activity (control) % EGFR (L858R) (h) (EGFR (L858R) (h)): 8%
Activity (control) % EGFR (T790M) (h) (EGFR (T790M) (h)): 4%
Activity (control) % EGFR (T790M, L858R) (h) (EGFR (T790M, L858R) (h)): 2%

C=C(CN1CCCCC1)C(=O)Nc1ccc(OC)c(Nc2ncc(Cl)c(Nc3ccccc3C(=O)C(=O)N(C)C)n2)c1 [Example 73, N-(3-(5-chloro-4-(2-(2-(dimethylamino)-2-oxoacetyl)phenylamino)pyrimidin-2-ylamino)-4-methoxyphenyl)-2-(piperidin-1-ylmethyl)acrylamide]
Activity (control) % ALK (h) (ALK (h)): 17%
Activity (control) % EGFR (h) (EGFR (h); [2]): 67%
Activity (control) % EGFR (L858R) (h) (EGFR (L858R) (h); [2]): 37%
Activity (control) % EGFR (T790M) (h) (EGFR (T790M) (h); [2]): 3%
Activity (control) % EGFR (T790M, L858R) (h) (EGFR (T790M, L858R) (h); [2]): 3%

C=CC(=O)Nc1cc(Nc2ncc(Cl)c(Nc3ccccc3C(=O)C(=O)N(C)C)n2)c(OC)cc1F [Example 66, N-(5-(5-chloro-4-(2-(2-(dimethylamino)-2-oxoacetyl)phenylamino)pyrimidin-2-ylamino)-2-fluoro-4-methoxyphenyl)acrylamide]
Activity (control) % ALK (h) (ALK (h)): 35%
Activity (control) % EGFR (T790M) (h) (EGFR (T790M) (h); [2]): 66%
Activity (control) % EGFR (T790M, L858R) (h) (EGFR (T790M, L858R) (h); [2]): 24%
activity against both activated and resistant T790M forms of EGFR in vitro cellular assays [1]: potent activity

C=C(CN1CCCCC1)C(=O)Nc1cccc(Nc2ncc(Cl)c(Nc3ccccc3C(=O)C(=O)N(C)C)n2)c1 [Example 113, N-(3-(5-chloro-4-(2-(2-(dimethylamino)-2-oxoacetyl)phenylamino)pyrimidin-2-ylamino)phenyl)-2-(piperidin-1-ylmethyl)acrylamide]
Activity (control) % ALK (h) (ALK (h)): 19%
Activity (control) % EGFR (h) (EGFR (h); [2]): 88%
Activity (control) % EGFR (L858R) (h) (EGFR (L858R) (h); [2]): 78%
Activity (control) % EGFR (T790M) (h) (EGFR (T790M) (h); [2]): 16%
Activity (control) % EGFR (T790M, L858R) (h) (EGFR (T790M, L858R) (h); [2]): 3%

C=CC(=O)Nc1cc(Nc2ncc(C)c(Nc3ccccc3C(=O)C(=O)N(C)C)n2)ccc1OC [Example 101, N-(5-(4-(2-(2-(dimethylamino)-2-oxoacetyl)phenylamino)-5-methylpyrimidin-2-ylamino)-2-methoxyphenyl)acrylamide]
Activity (control) % ALK (h) (ALK (h)): 35%
Activity (control) % EGFR (h) (EGFR (h); [2]): 110%
Activity (control) % EGFR (L858R) (h) (EGFR (L858R) (h); [2]): 94%
Activity (control) % EGFR (T790M) (h) (EGFR (T790M) (h); [2]): 83%
Activity (control) % EGFR (T790M, L858R) (h) (EGFR (T790M, L858R) (h); [2]): 41%

CN(C)C/C=C/C(=O)Nc1cccc(Nc2ncc(Cl)c(Nc3ccccc3C(=O)C(=O)N(C)C)n2)c1 [Example 114, (E)-N-(3-(5-chloro-4-(2-(2-(dimethylamino)-2-oxoacetyl)phenylamino)pyrimidin-2-ylamino)phenyl)-4-(dimethylamino)but-2-enamide]
Activity (control) % ALK (h) (ALK (h)): 10%
Activity (control) % EGFR (h) (EGFR (h); [2]): 91%
Activity (control) % EGFR (L858R) (h) (EGFR (L858R) (h); [2]): 52%
Activity (control) % EGFR (T790M) (h) (EGFR (T790M) (h); [2]): 47%
Activity (control) % EGFR (T790M, L858R) (h) (EGFR (T790M, L858R) (h); [2]): 8%
